In patent publication US8808742B2, “Compositions and methods for preparing and using same” (Ardea Biosciences, Inc., priority 2008, dated 2014):
Read-outs that look alike come from different tables or passages of the source. Blank lines part the entries; values can stand above or below the compound they belong to.

What was measured:
[1] = Single-dose capsule administration in human cancer patients, concentration-time profiles; conditions: in vivo, oral, capsules of example 95A
Description: Administration of the capsules described in example 95A in Human Cancer Patients.Human cancer patients were administered a single dose of the 1 mg or 10 mg capsule composition described above in example 95A. For a 2 mg dose, patients were given 2×1 mg capsules; for a 4 mg dose, patients were given 4×1 mg capsules; for a 6 mg dose, patients were given 6×1 mg capsules; for a 10 mg dose, patients were given 1×10 mg capsule; for a 20 mg dose, patients were given 2×10 mg capsules.
The concentration-time profiles were monitored and are shown in FIG. 4 and in the table below: […]

[2] = test system: brain MEK activity (pERK levels); assay: Inhibition of brain MEK activity (pERK Western blot) vs plasma concentration; format: in vivo, Female nu/nu mice; conditions: Colo205 xenograft mice, pharmacodynamic/pharmacokinetic study
Description: (§1) Human tumors were implanted in nu/nu mice. Compound no. 1021 was administered orally for 14 days once tumors were approximately 100 mm^3 in size. Tumor growth inhibition (TGI) was determined after 14 days of treatment as the reduction in the size of tumors in treated groups versus vehicle controls. The time to endpoint (TTE) was calculated as the time for the tumor to reach the specified endpoint volume or the last day of the study, whichever came first. Treatment outcome was determined from percent tumor growth delay (% TGD), defined as the percent increase in median TTE of treated versus vehicle-treated control mice. Animals were also monitored for regression responses. Levels of pERK in tumors and brain were determined by Western blots and correlated with plasma levels of Compound no. […] A number of tumor models were evaluated with different doses and dosing regimens. […] The effect of different dosing regimens was evaluated in A375 xenografts. […]
(§2) Female nu/nu mice implanted with Colo205 tumor cells were given a single dose of vehicle or Compound no. […] Compound levels were determined in plasma samples and pERK levels were determined in tumor and brain samples collected at 2, 6, 12, and 24 hr post-dose. The pERK levels from Western blots were quantified using the LI-COR Odyssey, normalized to total ERK levels and compared to vehicle-treated levels to determine % MEK inhibition. […]

[3] = Plasma concentrations in A375 xenograft mice, QD vs BID; format: in vivo, Female nu/nu mice; conditions: oral
[4] = test system: MEK (pERK levels) in Colo205 tumors; assay: MEK inhibition (pERK Western blot) in Colo205 xenograft tumors vs plasma concentration; format: in vivo, Female nu/nu mice; conditions: Colo205 xenografts, pharmacodynamic/pharmacokinetic study
Description: as §1, §2

A375 melanoma tumors = assay: A375 melanoma xenograft, tumor growth inhibition / delay; format: in vivo, nu/nu mice
Description: as §1
(§3) Tumor Growth Inhibition for the groups treated with 25 mg/kg Compound no. 1021 were calculated for the indicated tumor xenografts. Tumor Growth Inhibition was measured at the end of once daily dosing for 14 days and calculated according to: […]
Female nu/nu mice were implanted with A375 tumor cells, which were allowed to grow to 100-200 mm^3. […] Tumor Growth Inhibition was measured at the end of once daily dosing for 14 days and calculated according to: […]

A431 epidermoid tumors = assay: A431 epidermoid tumor xenograft, tumor growth inhibition / delay; format: in vivo, nu/nu mice
Description: (§4) Human tumors were implanted in nu/nu mice. Compound no. 1021 was administered orally for 14 days once tumors were approximately 100 mm^3 in size. Tumor growth inhibition (TGI) was determined after 14 days of treatment as the reduction in the size of tumors in treated groups versus vehicle controls. The time to endpoint (TTE) was calculated as the time for the tumor to reach the specified endpoint volume or the last day of the study, whichever came first. Treatment outcome was determined from percent tumor growth delay (% TGD), defined as the percent increase in median TTE of treated versus vehicle-treated control mice. Animals were also monitored for regression responses. Levels of pERK in tumors and brain were determined by Western blots and correlated with plasma levels of Compound no. 1021 for the pharmacodynamic/pharmacokinetic study. A number of tumor models were evaluated with different doses and dosing regimens. […] The effect of different dosing regimens was evaluated in A375 xenografts. Although 100 mg/kg Compound no. […] 1021. […]
as §3

[5] = test system: Colo205 colon cancer tumors; assay: Colo205 colon tumor xenograft, tumor growth inhibition / delay; format: in vivo, nu/nu mice
Description: as §4, §3

HT29 colon cancer tumors = assay: HT29 colon tumor xenograft, tumor growth inhibition; format: in vivo, nu/nu mice; conditions: oral 25 mg/kg QD
Description: as §4, §3

[6] = test system: phosphorylated ERK in MDA-MB-231 breast cancer cells; assay: Western blotting for phosphorylated ERK in MDA-MB-231 cells (EC50 data); format: cell-based; conditions: Homo sapiens, 0.5 h, 30 min compound, EGF stimulation, read-out: MDA pERK ELISA EC50
Description: Effects of compounds in the cell were determined by Western blotting for phosphorylated ERK. MDA-MB-231 breast cancer cells were plated in a 48 well plate at 20,000 cells per well and grown in a 37° humidified CO2 incubator. The following day, the growth media (DMEM+10% fetal bovine serum) was removed and replaced with starve media (DMEM+0.1% fetal bovine serum). Cells were incubated in the starve media for sixteen hours and then treated with a range of compound concentrations for thirty minutes. After incubation with compound, cells were stimulated with 100 ng/mlEGF for five minutes. The cells were then lysed and analyzed by Western blot using a monoclonal antibody raised to phosphorylated ERK. The signal was amplified using a secondary antibody conjugated to a near-IR dye and detected on a Licor Odyssey scanner.

[7] = column 2, no head, 2nd regimen of b975: 25 mg/kg BID

- concentration at 12 h ([1]; 2 mg, Dose 2 mg, Day 1, read-out: C12 hr): 0.0378 ng/mL
- concentration at 12 h ([1]; 2 mg, Dose 2 mg, Day 35, read-out: C12 hr): 0.0756 ng/mL
- concentration at 12 h ([1]; 4 mg, Dose 4 mg, Day 1, read-out: C12 hr): 0.134 ng/mL
- concentration at 12 h ([1]; 4 mg, Dose 4 mg, Day 35, read-out: C12 hr): 0.31 ng/mL
- concentration at 12 h ([1]; 10 mg, Dose 10 mg, Day 35, read-out: C12 hr): 1.01 ng/mL
- concentration at 12 h ([1]; 20 mg, Dose 20 mg, Day 35, read-out: C12 hr): 2.19 ng/mL
- Cmin Free Fraction ([3]; column 1, no head, 1st regimen of b975: 50 mg/kg QD): 0.117 ng/mL
- Cmax [3, 7]: 10200 ng/mL
- Cmin Free Fraction [3, 7]: 2.48 ng/mL
- Cmin Free Fraction ([3]; column 3, no head, 3rd regimen of b975: printed 50 mg/kg QD): 0.059 ng/mL
- Cmin Free Fraction ([3]; column 4, no head, 4th regimen of b975: 12.5 mg/kg BID): 0.986 ng/mL
SMILES: COc1cc(F)c(F)c(Nc2ccc(I)cc2F)c1NS(=O)(=O)C1(C[C@H](O)CO)CC1 [Compound no. 1021]
- pERK inhibition in brain [2]: minimal inhibition
- pERK formation in tumors [4]: inhibition of pERK formation
- % TGD, significance (A375 melanoma tumors; 25 or 50 mg/kg QD): statistically significant
- TGI, significance (A375 melanoma tumors; oral 25 mg/kg QD): Statistically significant
- % TGD, significance (A431 epidermoid tumors; 25 or 50 mg/kg QD): statistically significant
- TGI, significance (A431 epidermoid tumors; oral 25 mg/kg QD): Statistically significant
- % TGD, significance ([5]; 25 or 50 mg/kg QD): statistically significant
- TGI, significance ([5]; oral 25 mg/kg QD): Statistically significant
- TGI, significance (HT29 colon cancer tumors): Statistically significant

- EC50 [6]: > 200 nM
SMILES: O=S(=O)(Nc1ccc(F)c(F)c1Nc1ccc(-c2cn[nH]c2)cc1F)C1CC1 [compound 0497618]

- EC50 [6]: > 200 nM
SMILES: Cn1cc(-c2ccc(Nc3c(NS(=O)(=O)C4CC4)ccc(F)c3F)c(F)c2)cn1 [compound 0497620]

- EC50 [6]: 100 to 200 nM
SMILES: O=S(=O)(Nc1ccc(F)c(F)c1Nc1ccc(-c2cc[nH]n2)cc1F)C1CC1 [compound 0497654]

- EC50 [6]: > 200 nM
SMILES: O=S(=O)(Nc1ccc(F)c(F)c1Nc1ccc(-c2ccncc2)cc1F)C1CC1 [compound 0497688]

- EC50 [6]: > 200 nM
SMILES: O=S(=O)(Nc1ccc(F)c(F)c1Nc1ccc(-c2cccnc2)cc1F)C1CC1 [compound 0497689]

- EC50 [6]: > 200 nM
SMILES: O=S(=O)(Nc1ccc(F)c(F)c1Nc1ccc(-c2ccccc2)cc1F)C1CC1 [compound 0497692]

- EC50 [6]: > 200 nM
SMILES: CC(=O)c1cccc(-c2ccc(Nc3c(NS(=O)(=O)C4CC4)ccc(F)c3F)c(F)c2)c1 [compound 0499266]

- EC50 [6]: > 200 nM
SMILES: CS(=O)(=O)Nc1ccc(-c2ccc(Nc3c(NS(=O)(=O)C4CC4)ccc(F)c3F)c(F)c2)cc1 [compound 0499271]

- EC50 [6]: 100 to 200 nM
SMILES: O=S(=O)(Nc1ccc(F)c(F)c1Nc1ccc(I)cc1F)c1ccc(-c2nsc(Cl)n2)s1 [compound 0530701]

- EC50 [6]: 15 to 100 nM
SMILES: O=S(=O)(Nc1ccc(F)c(F)c1Nc1ccc(I)cc1F)C1CCNCC1 [compound 0561599]

- EC50 [6]: 15 to 100 nM
SMILES: COC(=O)c1ccc(S(=O)(=O)Nc2ccc(F)c(F)c2Nc2ccc(I)cc2F)n1C [compound 0561608]

- EC50 [6]: > 200 nM
SMILES: COC(=O)c1sccc1S(=O)(=O)Nc1ccc(F)c(F)c1Nc1ccc(I)cc1F [compound 0620926]

- EC50 [6]: 15 to 100 nM
SMILES: CNCCS(=O)(=O)Nc1ccc(F)c(F)c1Nc1ccc(I)cc1F [compound 0621002]

- EC50 [6]: 15 to 100 nM
SMILES: CN(C)CCNCCS(=O)(=O)Nc1ccc(F)c(F)c1Nc1ccc(I)cc1F [compound 0621016]

- EC50 [6]: 100 to 200 nM
SMILES: Cn1cc(S(=O)(=O)Nc2ccc(F)c(F)c2Nc2ccc(I)cc2F)c(C(F)(F)F)n1 [compound 0621026]

- EC50 [6]: 100 to 200 nM
SMILES: CCN(C)CCS(=O)(=O)Nc1ccc(F)c(F)c1Nc1ccc(I)cc1F [compound 0621029]
